Reference: paper PMC5633905, “Conformational dynamics of the essential sensor histidine kinase WalK” (Acta Crystallographica. Section D, Structural Biology, 2017)

Assays:
Test in all cases: ITC
[1] = target: T1, lpWalK (370-624); format: binding, Lactiplantibacillus plantarum; conditions: 20 mM Tris-HCl pH 8.0, 5 mM MgCl2, 25 °C, fixed 1:1 model
T1 construct: gene walK; catalytic region DHp + CA domains, residues 370-624, N-terminal His tag, pET-His, E. coli BL21(DE3); DHp homodimer

[2] = target: T2, smVicK (196-450) (Streptococcus mutans, UniProt Q8DT64); format: binding
T2 construct: gene covS; DHp + CA domains, residues 196-450, pET-His vector, expressed in E. coli and purified as lpWalK

[3] = target: T3, smVicK CA (271-450) (Streptococcus mutans, UniProt Q8DT64); format: binding
T3 construct: gene covS
T3 sequence (Q8DT64 entry or part of it): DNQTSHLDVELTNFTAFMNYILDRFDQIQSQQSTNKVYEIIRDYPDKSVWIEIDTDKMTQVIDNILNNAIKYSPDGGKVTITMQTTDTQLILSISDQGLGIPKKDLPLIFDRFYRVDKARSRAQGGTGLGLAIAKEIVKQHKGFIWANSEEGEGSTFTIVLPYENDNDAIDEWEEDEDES

T2 sequence (Q8DT64 entry or part of it): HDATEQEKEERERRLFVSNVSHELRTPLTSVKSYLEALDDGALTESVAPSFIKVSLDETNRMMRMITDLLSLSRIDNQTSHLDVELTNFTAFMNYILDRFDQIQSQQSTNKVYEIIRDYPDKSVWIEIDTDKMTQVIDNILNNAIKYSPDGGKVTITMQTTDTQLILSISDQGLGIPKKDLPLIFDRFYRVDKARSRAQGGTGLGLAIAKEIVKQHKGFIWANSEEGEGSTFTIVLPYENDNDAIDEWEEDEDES

Row | SMILES | Kd [1] [µM] | Kd [2] [µM] | Kd [3] [µM] | Kd ([1]; gamma-phosphate not defined in the crystal) [µM]
1 | Nc1ncnc2c1ncn2[C@@H]1O[C@H](COP(=O)(O)O)[C@@H](O)[C@H]1O [AMP] | 1280 ± 95.5 |  |  | 
2 | Nc1ncnc2c1ncn2[C@@H]1O[C@H](COP(=O)(O)OP(=O)(O)O)[C@@H](O)[C@H]1O [ADP] | 1200 ± 17 | 701 ± 165 | 474 ± 97.5 | 
3 | Nc1ncnc2c1ncn2[C@@H]1O[C@H](COP(=O)(O)OP(=O)(O)NP(=O)(O)O)[C@@H](O)[C@H]1O [AMPPNP] |  | 538 ± 32 | 292 ± 15.2 | 450 ± 6.36
